From patent US20180008688A1, “METHOD AND COMPOSITIONS FOR ENHANCING IMMUNOTHERAPEUTIC TREATMENT OF A CANCER” (Augusta University Research Institute, Inc., priority 2016, published 2018)
Entries after “also recorded” stand apart in the source; their conditions may differ.

Legend:
OT-I T cells [1] = assay: OT-I T cells activated with cognate antigen and different antigen-presenting cells, with nutlin; assay type: cell-based, mouse
From the text: Under normal circumstances the signal to downregulate p53 is provided by engagement of the T cell antigen receptor (TCR) that activates MDM2 and targets p53 for degradation (Watanabe et al., (2014) Immunity 40: 681-691).
To test whether the effect of Ly6c^+CD103^+ dendritic cells was due to IL-12, OT-I T cells were activated using 3 different types of antigen-presenting cells (APCs).
Consistent with this, when dendritic cells were sorted from TDLNs of IL-12-deficient mice (IL-12p40-KO), treated with the same immunotherapy regimen, these dendritic cells were unable to rescue T cells from nutlin. T cell proliferation tracked concordantly with p53 levels. In these experiments with dendritic cells from TDLNs, feeder populations were added to maintain functional activity.

E.G7 tumors [2] = assay: RIP-mOVA mice with E.G7 tumors treated with oxaliplatin with or without nutlin; assay type: in vivo; conditions: nutlin-3a added to oxaliplatin
Procedure: A classical model of ICD was first tested in which EL4-OVA lymphoma tumors (clone E.G7) are treated with oxaliplatin chemotherapy (Ghiringhelli et al., (2009) Nat. Med. 15: 1170-1178). E.G7 bears the same model antigen as B16-OVA (described with the RIP-mOVA model, above), so it was possible to test the effects of nutlin plus oxaliplatin in the RIP-mOVA model.

OT-I T cells [3] = assay: Autoimmune diabetes in RIP-mOVA mice after OT-I T cell transfer (no tumor); assay type: in vivo, mouse
Procedure: Accordingly and without wishing to be bound by any one hypothesis, it is likely that p53 can play two different immunologic roles, depending on the context (tumor versus normal tissues). […] Following T cell transfer, these mice progressively developed lethal autoimmune diabetes. However, if mice were treated with nutlin-3a diabetes formation was suppressed and the mice remained healthy.

E.G7 tumors [4] = assay: E.G7 (EL4-OVA) tumors in wild-type hosts treated with oxaliplatin with or without nutlin-3a; assay type: in vivo, mouse; conditions: for Ly6C+/CD103+ dendritic cells in tumors: nutlin added to oxaliplatin
Procedure: In vivo tumor studies: The B16F10 and E.G7 (EL4-OVA) cell lines were obtained from ATCC. B16-OVA (B16F10 transfected with full-length chicken ovalbumin) clone MO4 was according to Falo et al. ((1995) Nat. Med. 1: 649-653). B16F10 cells expressing EGFP protein (B16-GFP cells) were derived using lentiviral transfection. Tumor implantation was performed as described (Sharma et al., (2007) J. Clin. Invest. 117: 2570-2582), using 1×10^5 cells for B16F10 and 1×10^6 cells for other cell lines (large inocula were used to ensure rapid tumor engraftment and immune suppression). Tumors were implanted bilaterally in each mouse as a control for reproducible implantation technique; replicate tumor diameters in a single mouse were typically within ±15%. Tumor volume was calculated from orthogonal diameters using the formula V=L×W^2×π/6. Mice received approved euthanasia when tumors reached a size of 300 mm^2 (product of orthogonal diameters); death was never used a planned endpoint in any study.
(§1) Tumor implantation was performed as described (Sharma et al., (2007) J. Clin. Invest. 117: 2570-2582). VO-OHpic was given at 10 mg/kg/day i.p., in 10% DMSO/PBS. Cyclophosphamide was given at 150 mg/kg i.p×1 dose; and oxaliplatin at 5 mg/kg i.p×1 dose. Nutlin-3a was administered daily at 10 mg/kg/day i.p. For checkpoint blockade, mice received anti-CTLA-4 plus a cocktail of antibodies against the PD-1 pathway. Vaccines and T cell adoptive transfer studies were performed as described (Sharma et al., (2015) Sci. Advances. 1: e1500845).
VO-OHpic was given at 10 mg/kg/day i.p., in 10% DMSO/PBS. Cyclophosphamide was given at 150 mg/kg i.p×1 dose. Oxaliplatin was given at 5 mg/kg i.p×1 dose. Nutlin-3a was dissolved at 2 mg/ml in 10% DMSO in buffered saline and administered daily at 10 mg/kg/day i.p. The 10 mg/kg/day dose was at the lower end of the parenteral dosing range described for mice (Zhang et al., (2011) Drug Meta. Dispos. 39: 15-21). For checkpoint blockade, mice received anti-CTLA-4 (clone 9D9, BioXcell) plus a cocktail of antibodies against the PD-1 pathway: anti-PD-L2, clone TY25 (Yamazaki et al., (2002) J. Immunol. 169: 5538-5545); anti-PD-1, clone J43 (Agata et al., (1996) Int. Immunol. 8: 765-772); and anti-PD-L1, clone MIH7 (Tsushima et al., (2003) Eur. J. Immunol. 33: 2773-2782). A cocktail was used in order to block the PD-1 pathway as completely as possible and thus minimize any peculiarities of a single blocking antibody.

E.G7 tumors [5] = assay: E.G7/oxaliplatin model in LysMcre/p53-KO hosts with or without nutlin-3a; assay type: in vivo, mouse; conditions: mice lacking myeloid p53; FIG. 8D
From the text: To test whether the relevant target of nutlin in tumors was specifically the p53 expression in myeloid dendritic cells, the E.G7/oxaliplatin model in LysMcre/p53-KO hosts was used. If mice lacked the relevant p53 in tumor-associated myeloid cells, then LysMcre/p53-KO mice should lose all anti-tumor effect of nutlin. For these studies, mice received congenically-marked OT-I cells to monitor whether T cells were still rescued by IL-12 in tumors.
Mice with a nuclear-localizing Cre-recombinase knock-in replacing one copy of the Lyz2 gene (Clausen et al., (1999) Transgenic Res. 8: 265-277) (strain 004781, Jax) were crossed as heterozygotes with homozygous p53^flox/flox mice (Marino et al., (2000) Genes Dev. 14: 994-1004) (strain 008462, Jax).
as §1

[6] = activation with cognate antigen

COc1ccc(C2=NC(c3ccc(Cl)cc3)C(c3ccc(Cl)cc3)N2C(=O)N2CCNC(=O)C2)c(OC(C)C)c1 (single isomer, unassigned; (-)) [nutlin-3a, (−)-4-(4,5-Bis(4-chlorophenyl)-2-(2-isopropoxy-4-methoxyphenyl)-4,5-dihydro-1H-imidazole-1-carbonyl)piperazin-2-one]
down-regulation of p53 in OT-I T cells (OT-I T cells [1]; CD11c+Ly6c+ dendritic cells from TDLNs of VO-OHpic+CTX treated mice as APCs): lost all ability to prevent down-regulation of p53
T cell proliferation (OT-I T cells [1]; [6]): prevented T cell proliferation
total p53 in OT-I T cells (OT-I T cells [1]; [6]): marked increase
down-regulation of p53 in OT-I T cells (OT-I T cells [1]; dendritic cells from normal LNs as APCs): completely prevented
anti-tumor activity (E.G7 tumors [2]): significantly enhancing the anti-tumor activity
autoimmune diabetes (E.G7 tumors [2]): protected the mice from diabetes
level of p53 in OT-I cells in pancreatic LNs (OT-I T cells [3]; mouse, in vivo): increased
diabetes formation (OT-I T cells [3]; nutlin-3a treatment after OT-I transfer): suppressed
expression of granzyme B in OT-I cells (OT-I T cells [3]; pancreatic LNs): decreasing
Ly6C+/CD103+ dendritic cells in tumors (E.G7 tumors [4]): sustained expression
Ly6C+/CD103+ dendritic cells in tumors (E.G7 tumors [4]; listed as nutlin): maintained long-term expression
anti-tumor effect (E.G7 tumors [4]; nutlin-3a added to one dose of oxaliplatin, FIG. 8C): markedly prolonged the anti-tumor effect; also recorded: significantly increased the intensity and duration of the anti-tumor effect
IL-12 production (E.G7 tumors [4]; nutlin-3a added to oxaliplatin): enhanced IL-12 production
anti-tumor effect of nutlin-3a (E.G7 tumors [5]): lost all anti-tumor effects; also recorded: lost all ability to enhance anti-tumor immunity
